Experimental data from publication PMC6522510 (Nature Communications, 2019).
Where two headings read alike, the source gives them in different places.

Experiments:
Assay in all cases: cells
Set-up in all cases: species or system AML cell lines (8); Secondary HTS, 10-point dose-response in triplicate, Cell Titer Glo viability, four-parameter fit EC50
MOLM-13 = settings: Homo sapiens, read-out: MOLM-13
MV4-11 = settings: Homo sapiens, read-out: MV4-11
CHRF288-11 = settings: read-out: CHRF288-11
CMK = settings: Homo sapiens, read-out: CMK
CMS = settings: read-out: CMS
M07e = settings: M-07e, read-out: M07e
ML-2 = settings: Homo sapiens, read-out: ML-2
U937 = settings: Homo sapiens, read-out: U937

| Structure (SMILES) | EC50 (MOLM-13; MOLM-13, 72 h) [µM] | EC50 (MV4-11; MV4-11, 72 h) [µM] | EC50 (CHRF288-11; 72 h) [µM] | EC50 (CMK; CMK, 72 h) [µM] | EC50 (CMS; 72 h) [µM] | EC50 (M07e; 72 h) [µM] | EC50 (ML-2; ML-2, 72 h) [µM] | EC50 (U937; U-937, 72 h) [µM] | EC50 (MOLM-13; 72 h cell viability) [µM] | EC50 (MV4-11; 72 h cell viability) [µM] | EC50 (CHRF288-11; 72 h cell viability) [µM] | EC50 (CMK; 72 h cell viability) [µM] | EC50 (CMS; 72 h cell viability) [µM] | EC50 (M07e; 72 h cell viability) [µM] | EC50 (ML-2; 72 h cell viability) [µM] | EC50 (U937; U-937, 72 h cell viability) [µM] |
| --- | --- | --- | --- | --- | --- | --- | --- | --- | --- | --- | --- | --- | --- | --- | --- | --- |
| CC(C(=O)O)c1ccc(-c2ccccc2)c(F)c1 (stereo not shown) [FLURBIPROFEN] | > 10 | > 10 | > 10 | > 10 | > 10 | > 10 | > 10 | > 10 | – | – | – | – | – | – | – | – |
| CN(c1ncccc1CNc1nc(Nc2ccc3c(c2)CC(=O)N3)ncc1C(F)(F)F)S(C)(=O)=O [SJ000833883, PF-00562271] | > 10 | > 10 | > 10 | 2.6 | > 10 | 6.2 | 0.5 | 3.9 | – | – | – | – | – | – | – | – |
| COc1cc2c(NC3CCN(C)CC3)nc(N3CCCN(C)CC3)nc2cc1OCCCN(C)C [SJ000784262, UNC0224] | > 10 | > 10 | > 10 | > 10 | > 10 | > 10 | > 10 | > 10 | – | – | – | – | – | – | – | – |
| N[C@@H]1CCCN(c2c(/C=C3\SC(=O)NC3=O)cccc2-c2ccccc2)C1 [SJ000833889, AZD1208] | > 10 | > 10 | > 10 | > 10 | > 10 | > 10 | > 10 | > 10 | – | – | – | – | – | – | – | – |
| S=C(NCc1ccc2c(c1)OCO2)N1CCN(c2ncnc3c2oc2ccccc23)CC1 [AMUVATINIB] | > 10 | > 10 | > 10 | > 10 | > 10 | > 10 | > 10 | > 10 | – | – | – | – | – | – | – | – |
| Nc1nc(OCc2ccccc2)c2nc[nH]c2n1 [Compound O6-BENZYLGUANINE] | > 10 | > 10 | > 10 | > 10 | > 10 | > 10 | > 10 | > 10 | – | – | – | – | – | – | – | – |
| O=C(NC(NC(=S)Nc1ccc(F)c([N+](=O)[O-])c1)C(Cl)(Cl)Cl)C(c1ccccc1)c1ccccc1 (stereo not shown) [SJ000786007, CGK 733] | > 10 | > 10 | > 10 | > 10 | > 10 | > 10 | > 10 | > 10 | – | – | – | – | – | – | – | – |
| CCc1cc2c(cc1N1CCC(N3CCOCC3)CC1)C(C)(C)c1[nH]c3cc(C#N)ccc3c1C2=O [CH5424802] | > 10 | > 10 | > 10 | > 10 | > 10 | > 10 | > 10 | > 10 | – | – | – | – | – | – | – | – |
| CCNC(=O)c1cc2c(-c3cc(OCCN4CCCC4)c(Cl)cc3Cl)nc(N)nc2s1 [SJ000796085, NVP-BEP800] | 0.087 | 0.11 | 0.43 | 0.19 | 0.4 | > 10 | 0.21 | 0.15 | – | – | – | – | – | – | – | – |
| CS(=O)(=O)c1ccc(C(=O)Nc2ccc(Cl)c(-c3ccccn3)c2)c(Cl)c1 [VISMODEGIB] | > 10 | > 10 | > 10 | > 10 | > 10 | > 10 | > 10 | > 10 | – | – | – | – | – | – | – | – |
| COC(=O)[C@H](CC(C)C)NC(=O)c1ccc(NCc2cnc[nH]2)cc1-c1cccc2ccccc12 [SJ000803715, GGTI-2147] | 1.1 | > 10 | > 10 | > 10 | > 10 | > 10 | > 10 | > 10 | – | – | – | – | – | – | – | – |
| O=C(Nc1ncc([N+](=O)[O-])s1)c1ccc([N+](=O)[O-])c(Cl)c1 [SJ000834139, SM-7368] | – | – | – | – | – | – | – | – | > 10 | > 10 | > 10 | > 10 | > 10 | > 10 | > 10 | 6.8 |
| Nc1[nH]nc2nnc(-c3c(-c4ccccc4)nn4ccccc34)cc12 [SJ000773182, FR 180204] | > 10 | > 10 | > 10 | > 10 | > 10 | > 10 | > 10 | > 10 | – | – | – | – | – | – | – | – |
| CCNC(=O)C[C@@H]1N=C(c2ccc(Cl)cc2)c2cc(OC)ccc2-n2c(C)nnc21 [SJ000574791, I-BET-762] | 4.6 | 0.97 | > 10 | > 10 | 9.8 | 0.001 | 9.8 | 4.3 | – | – | – | – | – | – | – | – |
| CC(C)Oc1ccc(-c2cnc3c(-c4ccnc5ccccc45)cnn3c2)cc1 [SJ000796016, DMH-1] | 0.0063 | > 10 | > 10 | > 10 | > 10 | > 10 | > 10 | > 10 | – | – | – | – | – | – | – | – |
| CCCCCCCCCCCCCCCCCCOP(=O)([O-])OC1CC[N+](C)(C)CC1 [PERIFOSINE] | > 10 | > 10 | > 10 | > 10 | > 10 | > 10 | > 10 | > 10 | – | – | – | – | – | – | – | – |
| S=c1[nH]cnc2nc[nH]c12 [MERCAPTOPURINE] | > 10 | > 10 | > 10 | > 10 | > 10 | > 10 | > 10 | > 10 | – | – | – | – | – | – | – | – |
| COC(=O)[C@H](CC(C)C)NC(=O)c1ccc(NC[C@@H](N)CS)cc1-c1cccc2ccccc12 [SJ000821624, GGTI 298] | 6.4 | 6.4 | > 10 | > 10 | > 10 | > 10 | > 10 | 6.5 | – | – | – | – | – | – | – | – |
| OC[C@H]1O[C@@H](n2cnc3c2NC=NC[C@H]3O)C[C@@H]1O [PENTOSTATIN] | > 10 | > 10 | > 10 | > 10 | > 10 | > 10 | > 10 | > 10 | – | – | – | – | – | – | – | – |
| Cc1cc2nc(NCCCO)n(CC(=O)c3cc(C(C)(C)C)c(O)c(C(C)(C)C)c3)c2cc1C [SJ000786025, CID-2858522] | > 10 | > 10 | > 10 | > 10 | > 10 | > 10 | > 10 | > 10 | – | – | – | – | – | – | – | – |
